Measured values taken from patent publication US10800810B2, “Active peptide for inhibiting AMPA receptor and preparation method and use thereof” (CHINA NATIONAL RESEARCH INSTITUTE OF FOOD AND FERMENTATION …, priority 2015, dated 2020).

Legend:
[1] = background; cited from earlier work
[2] = system: pentylenetetrazole (PTZ) model; conditions: background; cited from earlier work
AMPA receptor [3] = assay: AMPAR-mediated EPSC and mEPSC in mouse hippocampal slices; type: cell-based
Description: (§1) The slices of the hippocampus are transferred to an underwater recording room (Warner instrument). In the recording room, the slices are continuously perfused with ACSF at a speed of 3 ml/min, and whole-cell records of neurons of CA1 region of the hippocampus are performed by those experimenters who are not distinguished between a control group and a treated group. The neurons are identified through morphological recognition using an infrared ray differential interference phase-contrast microscope (BX51W, Olympus, Japan). A borosilicate microtube of 1.5 mm (external diameter)×0.86 mm (internal diameter) is drawn via a flame Brown electrode drawing instrument (P-97, Sutter instrument) using a 4 stage drawing scheme, to form a recording electrode with a resistance between 6-9 megohms. The recording electrode for recording is filled with above-mentioned internal liquid, and a whole-cell recording is proceeded by using above-mentioned external liquid.
(§2) Bipolar polytetrafluoroethylene insulated iridium is used to perform a voltage-clamp recording of excitatory postsynaptic currents (EPSCs), and platinum microelectrode (AM system) is induced at a frequency of 0.0167 Hz. Records are taken by a Multiclamp 700B amplifier, filtered at 10 kHz, sampled at 200 microseconds, and recorded to a personal computer by using pClamp10.2 software, and then analyzed by using Axon Digidata 1440A and pClamp10.2 (Molecular Devices).
(2) after blocking components of NMDA receptor-mediated EPSCs by adding 50 μM of D-APV to ACSF and blocking AMPAR-mediated EPSCs by adding 10 μM of CNQX to ACSF, remaining EPSCs of both them are also recorded. 10 μM of PTX is added in external liquid to isolate mEPSCs. After 10 μM of CNQX and 20 μM of EGAR and also 50 μM of D-APV (an antagonist of NMDA receptor) and 20 μM of EGAR are added to ACSF, mEPSCs are also recorded. By adding 10 μM of CNQX or 50 μM of D-APV to ACSF, NMDAR-mediated or AMPAR-mediated mEPSCs are isolated.
(3) With regard to a NMDAR-mediated current record, 100 μM of NMDA is added into the above-mentioned external liquid; and with regard to an AMPAR-mediated current record, 20 μM of AMPA is added into above-mentioned external liquid.

[4] = system: neurons of CA1 region of the hippocampus; assay: Whole-cell recording of EPSC and mEPSC in mouse hippocampal slices; type: cell-based; conditions: for amplitudes of mEPSCs: P<0.03
Description: Hippocampus is taken from a C57BL/6 mouse to do whole-cell recording. The mouse is deep narcotized with 20% urethane before being decollated, then its brain is rapidly removed and immersed in ice-cold ACSF, then the brain is trimmed, and fixed onto a vibration slicer (Leica VT1000A, Germany) to be cut into coronal slices of 350 microns. The slices are incubated with ACSF for at least 1 hour at room temperature before recording.
as §1, §2
Experiments mentioned below are carried out respectively, and the results are represented by an average value±S.E.M. In addition to data analysis of cumulative probability by the means of K-S test, statistical analyses of biological data are all performed by using T-test. All the statistical analyses are done by using SPSS 13.0 software.
(1) EPSCs of slices treated by EGAR are recorded, while EPSCs of slices without EGAR treatment is as contrast, and 10 μM of PTX is added into the external liquid to separate mEPSCs out.

NMDA receptor [5] = assay: NMDAR-mediated EPSC and mEPSC in mouse hippocampal slices; type: cell-based
Description: as §1, §2
(2) after blocking components of NMDA receptor-mediated EPSCs by adding 50 μM of D-APV to ACSF and blocking AMPAR-mediated EPSCs by adding 10 μM of CNQX to ACSF, remaining EPSCs of both them are also recorded. 10 μM of PTX is added in external liquid to isolate mEPSCs. After 10 μM of CNQX and 20 μM of EGAR and also 50 μM of D-APV (an antagonist of NMDA receptor) and 20 μM of EGAR are added to ACSF, mEPSCs are also recorded. By adding 10 μM of CNQX or 50 μM of D-APV to ACSF, NMDAR-mediated or AMPAR-mediated mEPSCs are isolated. […]

AMPA receptor [6] = assay: Current induced by AMPA, patch clamp; type: cell-based, mouse
Description: as §1
(§3) (4) With regard to records of currents induced by NMDA, 100 μM of NMDA is added into above-mentioned external liquid; with regard to records of currents induced by AMPA, 20 μM of AMPA is added into above-mentioned external liquid.

NMDA receptor [7] = assay: Current induced by NMDA, patch clamp; type: cell-based, mouse; conditions: 100 μM NMDA plus 20 μM EGAR, P>0.05, n=6
Description: as §1, §3

hippocampal neuron = assay: Epilepsy-like discharge of a hippocampal neuron induced by low magnesium external liquid; type: cell-based, mouse
Description: as §1
(5) In an experiment of nominal zero magnesium, magnesium ions are replaced by sodium ions with the same osmotic concentration.

CA1 neuron = assay: Effect on electrophysiological properties of a neuron; type: cell-based, mouse
Description: as §1

[8] = system: PTZ-induced mouse epilepsy; assay: Model of PTZ-induced epilepsy seizure; type: in vivo; conditions: for preclinical period of epilepsy seizure vs PBS treated group: 30 minutes before PTZ 55 mg/kg i.p.
Description: In order to determine anticonvulsive effect of EGAR, the degree of epilepsy after EGAR treatment is evaluated for the model of PTZ-induced epilepsy seizure. EGAR is injected into animals earlier 30 minutes than PTZ. The animals are randomly divided into 4 groups, and each group has 10 animals. 4 groups are given EGAR at 0, 1, 10 and 100 mg/kg respectively. All animals are intraperitoneally injected with PTZ at a dose of 55 mg/kg, and this dose can produce clonic seizures in all control animals.
Behaviors of mice are observed for 30 minutes immediately after PTZ injection. […] Mice are placed in a transparent plastic cage, and are observed for 30 minutes. The cage is thoroughly cleaned by using wet/dry cloth and any olfactory clue is removed with 70% ethanol. Animals that show rampage and forelimb clonus or more serious behavior (rampage, clonus and fall down) are considered to be epilepsy in mouse brain edge. Epilepsy seizure is scored according to the following criteria: 0, no response; 1, immobile; 2, taste movement and grasping; 3, tremor; 4, head shaking; 5, rampage and forelimb clonus; 6, rampage, clonus and fall down; 7, death.

[9] = behavioral experiment, overall conclusion

## NS(=O)(=O)c1cccc2c1c([N+](=O)[O-])cc1nc(O)c(O)nc12 [NBQX, 2,3-dihydroxy-6-nitro-7-sulfamoyl benzo [f] quinoxaline]
[1]
  solubility: low solubility
[2]
  effect in pentylenetetrazole (PTZ) model: can play a role

## EGAR: tetrapeptide with an amino-acid sequence of SEQ ID No.17, contained in the salmon skin active peptide; synthetic EGAR used in tests (Salmo salar)
AMPA receptor [3]; 50 μM D-APV and 20 μM EGAR, P<0.01, n=6
  amplitude of AMPAR-mediated EPSC vs control group: significantly lower
AMPA receptor [3]; K-S test, p<0.05, n=6
  cumulative probabilities of AMPAR-mediated mEPSCs amplitudes vs control group: reduces
AMPA receptor [3]; K-S test, p>0.05, n=6
  cumulative probabilities of AMPAR-mediated mEPSC event intervals vs control group: no difference in frequency
AMPA receptor [3]; neurons treated by EGAR, P<0.05, t test, n=6
  amplitude of AMPAR-mediated mEPSCs vs control group: decline
AMPA receptor [3]; neurons treated with EGAR, P>0.05, t test
  frequencies of AMPAR-mediated mEPSCs vs control group: do not change
[4]; 20 μM EGAR
  amplitudes of mEPSCs: reduce
[4]; 50 μM EGAR
  amplitudes of mEPSCs: reduce
[4]; 100 μM EGAR
  amplitudes of mEPSCs: reduce
[4]; EGAR treated groups at concentrations
  cumulative probabilities of mEPSC event intervals vs control group: no difference
[4]; EGAR treated groups at concentrations, K-S test p<0.05
  cumulative probabilities of mEPSC amplitudes vs control group: reduced
[4]; slices treated with EGAR, 10 μM PTX
  mEPSC frequencies vs control group: no change
NMDA receptor [5]; 10 μM CNQX then 20 μM EGAR, P>0.05, n=6
  amplitude of NMDAR-mediated EPSC vs control group: not changed
NMDA receptor [5]; 100 μM NMDA plus 20 μM EGAR, P>0.05
  frequencies of NMDAR-mediated mEPSCs: no significant difference
NMDA receptor [5]; 100 μM NMDA plus 20 μM EGAR, P>0.05, n=6
  amplitudes of NMDAR-mediated mEPSCs: no significant difference
AMPA receptor [6]; 20 μM AMPA plus 20 μM EGAR, P<0.01, n=6
  peak current of AMPA, difference between groups: significant difference
AMPA receptor [6]; 20 μM AMPA, 20 μM EGAR, voltage-clamped at -70 mV
  inward current induced by AMPA: reduced
NMDA receptor [7]
  peak current of NMDA, difference between groups: no significant difference
Hippocampal neuron; 20 μM EGAR, P<0.05, n=6
  frequency of a peak current caused by low magnesium, difference between groups: significant difference
Hippocampal neuron; overall conclusion
  epilepsy-like discharge of a hippocampal neuron induced by low magnesium external liquid: can inhibit
CA1 neuron; 20 uM of EGAR treated group
  Action potential half width: 0.99 ± 0.01 ms
  Amplitude: 87.61 ± 1.18 mV
  Frequency: 13.53 ± 2.42 Hz
  Input resistance: 164.57 ± 9.96 MΩ
  Membrane capacitance: 19.07 ± 0.67 pF
  Resting potential: −65.57 ± 1.23 mV
  Threshold potential: −45.61 ± 0.2 mV
CA1 neuron; overall conclusion of Table 2
  effect on electrophysiological parameters of a CA1 neuron: no significant effect
[8]; 1 mg/kg EGAR
  preclinical period of epilepsy seizure vs PBS treated group: significant difference
[8]; 10 mg/kg EGAR
  preclinical period of epilepsy seizure vs PBS treated group: significant difference
[8]; 100 mg/kg EGAR
  preclinical period of epilepsy seizure vs PBS treated group: significant difference
[8]; [9]
  preclinical period of epilepsy seizure: extend the preclinical period
  tic symptom of PTZ-induced mouse epilepsy: mitigate tic symptom
